Values of other authors in paper PMC11280411, “Phytochemical Investigation of Carex praecox Schreb. and ACE-Inhibitory Activity of Oligomer Stilbenes of the Plant” (Molecules, 2024).

System: SARS-CoV-2 USA-WA1/2020, B.1.1.7, and B.1.351 variants
Set-up: method as in PMID 34543092
Conditions: cited from earlier work

## Oc1ccc(C2Oc3cc(O)cc4c3C2c2cc(O)cc(O)c2C(c2ccc(O)cc2)C4C2c3cc(O)cc4c3C(c3cc(O)cc(O)c3C2c2ccc(O)cc2)C(c2ccc(O)cc2)O4)cc1 (single isomer, unassigned; (-)) [Compound 16, (–)-hopeaphenol]
  inhibition of cellular entry of SARS-CoV-2: inhibited cellular entry of SARS-CoV-2 USA-WA1/2020, B.1.1.7, and B.1.351 variants
